Laboratory results reported in the NIST ThermoML archive (doi:10.1016/j.jct.2006.04.009).
± gives the expanded uncertainty stated by the source.

Settings: Liquid

vapor or sublimation pressure (343.15 K) [kPa] | vapor or sublimation pressure (353.15 K) [kPa] | vapor or sublimation pressure (363.15 K) [kPa] | SMILES | vapor or sublimation pressure (313.15 K) [kPa] | vapor or sublimation pressure (323.15 K) [kPa] | vapor or sublimation pressure (333.15 K) [kPa]
1817 ± 21 | 2251 ± 26 | 2738 ± 32 | COC [dimethyl ether] | 887 ± 10 | 1147 ± 13 | 1451 ± 17
 |  |  | FC(F)C(F)(F)F [pentafluoroethane] | 2009 ± 24 | 2537 ± 30 | 3170 ± 37
